We go through 3 molecules from US20260356990A1, “HEPARIN DODECASACCHARIDES CONTAINING TWO ANTITHROMBIN-BINDING SEQUENCES AS WELL AS PREPARATION METHODS AND APPLICATIONS THEREOF” (SHANDONG UNIVERSITY, priority 2022, published 2026).

The subject of assay [1] is factor Xa. The assay is described as follows: anti-factor Xa (FXa) activity, chromogenic substrate assay kit. It counts as biochemical. The following applies: in vitro; for IC50 for anti-FXa activity: mass concentration; for IC50: molar concentration. The protocol:
The anti-factor Xa (FXa) activity of the novel heparin dodecasaccharides I-2 and I-10 prepared in the present disclosure was determined using a commercially available chromogenic substrate assay kit. […] Therefore, the novel heparin dodecasaccharides I-2 and I-10 prepared in the present disclosure are specific inhibitors of factor Xa.

In the next assay the test system is factor IIa. The assay is described as follows: anti-factor IIa activity. Format: biochemical. The following applies: in vitro; data not shown.
Assay [2] concerns factor Xa. Put plainly: neutralization effect of protamine on the anti-factor Xa activity, chromogenic substrate assay. Format: biochemical. Conditions: in vitro, protamine at different concentrations. The method, then:
Using the chromogenic substrate assay, the effect of different concentrations of protamine on the anti-Factor Xa (FXa) activity of the novel heparin dodecasaccharides I-2 and I-10 was evaluated. […] The in vitro anti-FXa activity of the novel heparin dodecasaccharide I-2 could be reversed by >80% with protamine, as shown in FIG. 4. Therefore, the heparin dodecasaccharides I-2 and I-10 prepared in the present disclosure are novel heparin molecules whose anticoagulant activity can be neutralized by protamine.

The next assay relates to anticoagulant effect. Conditions: background statement; cited from earlier work.

As a reminder, the IC50 is the concentration that gives 50% inhibition. As to `CC(=O)N[C@H]1[C@@H](O[C@H]2[C@H](O)[C@@H](O)[C@H](O[C@H]3[C@H](OS(=O)(=O)O)[C@@H](NS(=O)(=O)O)[C@@H](O[C@H]4[C@H](O)[C@@H](OS(=O)(=O)O)[C@H](O[C@H]5[C@H](O)[C@@H](NS(=O)(=O)O)[C@@H](O[C@H]6[C@H](O)[C@@H](O)[C@H](Oc7ccc([N+](=O)[O-])cc7)O[C@@H]6C(=O)O)O[C@@H]5COS(=O)(=O)O)O[C@H]4C(=O)O)O[C@@H]3COS(=O)(=O)O)O[C@@H]2C(=O)O)O[C@H](COS(=O)(=O)O)[C@@H](O[C@@H]2O[C@H](C(=O)O)[C@@H](O[C@H]3O[C@H](COS(=O)(=O)O)[C@@H](O[C@@H]4O[C@@H](C(=O)O)[C@@H](O[C@H]5O[C@H](COS(=O)(=O)O)[C@@H](O[C@@H]6O[C@H](C(=O)O)[C@@H](O[C@H]7O[C@H](COS(=O)(=O)O)[C@@H](O)[C@H](O)[C@H]7NS(=O)(=O)O)[C@H](O)[C@H]6O)[C@H](OS(=O)(=O)O)[C@H]5NS(=O)(=O)O)[C@H](O)[C@H]4OS(=O)(=O)O)[C@H](O)[C@H]3NS(=O)(=O)O)[C@H](O)[C@H]2O)[C@@H]1O` [Compound I-2], in the assay with factor Xa [1], the “IC50 for anti-FXa activity” value is 0.01677 µg/mL and the IC50 came out at 4.34 nM. Moreover, the “anti-factor IIa activity” value in the assay with factor IIa is “no significant anti-factor IIa activity”.
Regarding `CO[C@H]1O[C@H](COS(=O)(=O)O)[C@@H](O[C@@H]2O[C@@H](C(=O)O)[C@@H](O[C@H]3O[C@H](COS(=O)(=O)O)[C@@H](O[C@@H]4O[C@H](C(=O)O)[C@@H](O[C@H]5O[C@H](COS(=O)(=O)O)[C@@H](O)[C@H](O)[C@H]5NS(=O)(=O)O)[C@H](O)[C@H]4O)[C@H](OS(=O)(=O)O)[C@H]3NS(=O)(=O)O)[C@H](O)[C@H]2OS(=O)(=O)O)[C@H](O)[C@H]1NS(=O)(=O)O` [fondaparinux sodium (Arixtra), reference compound], in the assay with factor Xa [1], the “IC50 for anti-FXa activity” value is 0.01263 µg/mL and the IC50 stood at 7.3 nM. Moreover, the “reversal of the anti-FXa activity by protamine (in words)” value with factor Xa [2] is given as “almost completely unneutralizable”. Moreover, in the assay with anticoagulant effect, the “neutralization of the anticoagulant effect by protamine (in words)” value is given as “not neutralized by protamine”.
With `CC(=O)N[C@H]1[C@@H](O[C@H]2[C@H](O)[C@@H](O)[C@H](O[C@H]3[C@H](OS(=O)(=O)O)[C@@H](NS(=O)(=O)O)[C@@H](O[C@H]4[C@H](O)[C@@H](OS(=O)(=O)O)[C@H](O[C@H]5[C@H](O)[C@@H](NS(=O)(=O)O)[C@@H](O[C@H]6[C@H](O)[C@@H](O)[C@H](Oc7ccc([N+](=O)[O-])cc7)O[C@@H]6C(=O)O)O[C@@H]5COS(=O)(=O)O)O[C@H]4C(=O)O)O[C@@H]3COS(=O)(=O)O)O[C@@H]2C(=O)O)O[C@H](COS(=O)(=O)O)[C@@H](O[C@@H]2O[C@@H](C(=O)O)[C@@H](O[C@H]3O[C@H](COS(=O)(=O)O)[C@@H](O[C@@H]4O[C@@H](C(=O)O)[C@@H](O[C@H]5O[C@H](COS(=O)(=O)O)[C@@H](O[C@@H]6O[C@H](C(=O)O)[C@@H](O[C@H]7O[C@H](COS(=O)(=O)O)[C@@H](O)[C@H](O)[C@H]7NS(=O)(=O)O)[C@H](O)[C@H]6O)[C@H](OS(=O)(=O)O)[C@H]5NS(=O)(=O)O)[C@H](O)[C@H]4OS(=O)(=O)O)[C@H](O)[C@H]3NS(=O)(=O)O)[C@H](O)[C@H]2OS(=O)(=O)O)[C@@H]1O` [Compound I-10], in the assay with factor Xa [1], the “IC50 for anti-FXa activity” value turned out to be 0.01803 µg/mL and the IC50 is 4.54 nM. For the same molecule, the “reversal of the anti-FXa activity by protamine (in words)” value with factor Xa [2] is listed as “completely reversed”. For the same molecule, in the assay with factor IIa, the “anti-factor IIa activity” value is “no significant anti-factor IIa activity”.
